Measurements reported in patent US12157749B2, “Borate-based drug and use thereof” (Chengdu Origin Biotechnology Limited Company, priority 2018, dated 2024).
“And” between values parts separate entries of the source, which are not always exact repeats. Equal values may be shown once. “Also recorded” adds a separate entry of the source. Where a name gives a salt, the structure may show the parent alone. Marks after values point to notes of the source that are not given here.

How the values were obtained:
[1] = test system: transplantation tumor of human multiple myeloma MM.1S; assay: Transplantation tumor model of human multiple myeloma cells MM.1S in CB17-SCID mouse, dose 0.00831 mmol/kg (Activity Experiment Example 2); assay type: in vivo; conditions: for tumor weight (g): X ± SD, tumor dissected on day 19; for tumor weight (g) / tumor inhibition rate (%): five doses; for Relative tumor proliferation rate T/C(%): 0.00831 mmol/kg oral gavage twice a week; for tumor inhibition rate (%): from tumor weight
Protocol: The model used in this experiment was the transplantation tumor model of human multiple myeloma cells line MM.1 S in CB17-SCID mouse (purchased from Beijing Weitong Lihua Experimental Animal Technology Co., Ltd.). Cryopreserved MM.1S cells were cultured in vitro by conventionally way after resuscitation. The cells were collected in logarithmic growth phase and diluted with serum-free culture medium or PBS to form a tumor cell suspension with a concentration of 5×10^7/ml. The tumor cell suspensions prepared above were taken with a 1 ml syringe and injected subcutaneously into the left armpit backrest side of the mouse, and 0.2 ml was injected into each inoculation site. About 1 to 2 weeks after the cultured tumor cells were injected into CB17-SCID mouse, the tumors were touched under the armpit. When the tumor volume was more than 100 mm^3, the tumor volume was measured and calculated, and the mice were randomly divided into groups according to the tumor volume. The administration doses of different test samples were equivalent doses on a molar basis with a specific dose of 0.00831 mmol/kg. Administration mode and frequency: The test samples were administered by oral gavage with a volume of 10 ml/kg. The model group was given equal volume of solvent. The test samples were administered twice a week for five times (with administration dose of 0.00831 mmol/kg, i.e., the dose of MLN9708 being 4.30 mg/kg, the dose of the compound 6a being 4.67 mg/kg, and the dose of the compound 6b being 4.53 mg/kg) for a duration of 19 days. The administration was conducted on the 1st, 4th, 8th, 11th and 15th day, and the experiment was finished on the 19th day. The mental state, activity, eating and other general conditions of mice were observed every day, and the weight was measured twice a week. The short diameter (a) and long diameter (b) of each mouse tumor were measured with vernier caliper twice a week, and the tumor volume was calculated according to formula (a^2×b)/2. The relative tumor volume (RTV) was calculated according to the measured tumor volume, RTV=Vt/V0. Wherein, V0 was the tumor volume when random grouping (i.e. d0) and Vt was the tumor volume at each measurement (i.e. dn). According to the following formula, evaluation index of anti-tumor activity, the relative tumor proliferation rate T/C (%), was calculated: Note: TRTV is RTV of treatment group, and CRTV is RTV of model control group. Efficacy evaluation standard is T/C %≤40%, and after statistics procession, p<0.05 is considered significant. On the 19th day, after the tumor was weighted and measured, the mice in each group were killed, and the tumor was dissected and weighed. According to the tumor weight, the tumor inhibition rate (TGI) was calculated, TGI=((average tumor weight of model group−average tumor weight of administration group)/average tumor weight of model group)×100%.

[2] = test system: transplantation tumor of human multiple myeloma MM.1S; assay: Transplantation tumor model of human multiple myeloma cells MM.1S in CB17-SCID mouse, low dose 0.00554 mmol/kg (Activity Experiment Example 4); assay type: in vivo; conditions: for area under the curve of tumor volume vs. time curve, ascending sequence: FIG. 2; for Relative tumor proliferation rate T/C(%): 0.00554 mmol/kg oral gavage twice a week; for tumor inhibition rate (%): from tumor weight at end of experiment
Protocol: The model used in this experiment was the transplantation tumor model of human multiple myeloma cells line MM.1S in CB17-SCID mouse. Cryopreserved MM.1S cells were cultured in vitro conventionally after resuscitation. The cells were collected in logarithmic growth phase and diluted with serum-free culture medium or PBS to form a tumor cell suspension with a concentration of 5×10^7/ml. The tumor cell suspensions prepared above were taken with a 1 ml syringe and injected subcutaneously into the left armpit backrest side of the mouse, and 0.2 ml was injected into each inoculation site. About 1 to 2 weeks after the cultured tumor cells were injected into the CB17-SCID mouse, the tumors were touched under the armpit. When the tumor volume was more than 100 mm^3, the tumor volume was measured and calculated, and the mice were randomly divided into groups according to the tumor volume. The administration doses of different test samples were equivalent doses on a molar basis with a specific dose of 0.00554 mmol/kg. Administration mode and frequency: the test samples were administered by oral gavage with a volume of 10 ml/kg. The model group was given equal volume of solvent. The test samples were administered twice a week for five times with an administration dose of 0.00554 mmol/kg, i.e., the dose of MLN9708 being 2.86 mg/kg, the dose of the compound 6q being 2.77 mg/kg, the dose of the compound 6f being 2.80 mg/kg, and the dose of the compound 6b being 3.02 mg/kg, for a duration of 17 days. The administration was conducted on the 1st, 5th, 8th, 12th and 15th day, and the experiment was finished on the 17th day. The mental state, activity, eating and other general conditions of mice were observed every day, and the weight was measured twice a week. The short diameter (a) and long diameter (b) of each mouse tumor were measured with a vernier caliper twice a week, and the tumor volume was calculated according to formula (a^2×b)/2. The relative tumor volume (RTV) was calculated according to the measured tumor volume, RTV=Vt/V0. Wherein, V0 was the tumor volume when random grouping (i.e. d0) and Vt was the tumor volume at each measurement (i.e. […]). According to the following formula, evaluation index of anti-tumor activity relative to the relative tumor proliferation rate T/C (%) was calculated: Note: TRTV is RTV of treatment group, and CRTV is RTV of model control group. According to “Technical Guidelines for Non-clinical Research of Cytotoxic Antitumor Drugs” issued by State Food and Drug Administration in China, the evaluation standard is T/C %≤40%, and after statistics procession, p<0.05 is considered significant. On the 19th day, after the tumor was weighted and measured, the mice in each group were killed, and the tumor was dissected and weighed. According to the tumor weight, the tumor inhibition rate (TGI) was calculated, TGI=((average tumor weight of model group−average tumor weight of administration group)/average tumor weight of model group)×100%.

[3] = day 19, 0.00831 mmol/kg oral gavage
[4] = X ± SD, tumor dissected at end of experiment, 0.00554 mmol/kg oral gavage, five doses
[5] = 0.00554 mmol/kg oral gavage, five doses

Row | Compound | tumor weight (g) ([1]; 0.00831 mmol/kg oral gavage) | Relative tumor proliferation rate T/C(%) ([1]; day 4) | Relative tumor proliferation rate T/C(%) ([1]; day 8) | Relative tumor proliferation rate T/C(%) ([1]; day 11) | Relative tumor proliferation rate T/C(%) ([1]; day 15) | Relative tumor proliferation rate T/C(%) ([1]; day 19) | tumor inhibition rate (%) [1, 3] | inhibition of tumor growth (in words) ([2]; 0.00554 mmol/kg oral gavage) | inhibitory effect on tumor growth compared with other test samples ([2]; 0.00554 mmol/kg oral gavage) | inhibitory effect sequence on transplantation tumor growth from strong to weak ([2]; 0.00554 mmol/kg oral gavage) | area under the curve of tumor volume vs. time curve, ascending sequence ([2]; 0.00554 mmol/kg oral gavage) | tumor weight (g) [2, 4] | Relative tumor proliferation rate T/C(%) ([2]; day 5) | Relative tumor proliferation rate T/C(%) ([2]; day 8) | Relative tumor proliferation rate T/C(%) ([2]; day 12) | Relative tumor proliferation rate T/C(%) ([2]; day 15) | Relative tumor proliferation rate T/C(%) ([2]; day 17) | tumor inhibition rate (%) [2, 5] | onset time / effective time of controlling tumor growth (in words) ([2]; 0.00554 mmol/kg oral gavage) | also measured
1 | CC(C)C[C@H](NC(=O)CNC(=O)c1cc(Br)ccc1Cl)B1OC(=O)C(CC(=O)O)(CC(=O)O)O1 [Compound 6a, (R)-2,2′-(2-(1-(2-(2-chloro-5-bromo-benzoylamino)acetylamino)-3-methylbutyl)-5-oxo-1,3,2-dioxaborolan-4,4-diyl)diacetic acid] | 2.471 ± 0.598^★★▴▴ g | 87.94% | 69.95% | 88.41^▴ % | 94.56^▴ % | 80.45% | 31.63% | – | – | – | – | – | – | – | – | – | – | – | – | –
2 | CC(C)C[C@H](NC(=O)CNC(=O)c1cc(Br)ccc1F)B1OC(=O)C(CC(=O)O)(CC(=O)O)O1 [Compound 6b, (R)-2,2′-(2-(1-(2-(2-fluoro-5-bromo-benzoylamino)acetylamino)-3-methylbutyl)-5-oxo-1,3,2-dioxaborolan-4,4-diyl)diacetic acid] | 0.063 ± 0.072^★★ g | 48.84^▴ % | 4.3^▴▴ % | 1.75^▴▴ % | 1.12^▴▴ % | 0.5^▴▴ % | 98.26% | can significantly inhibit tumor growth | significantly stronger inhibitory effect on tumor growth than MLN9708(p<0.01); also recorded: has the fastest effect on tumor growth and has the strongest inhibitory activity | 6b>6f>6q>MLN9708 | compound 6b<compound 6f<compound 6q | 0.360 ± 0.415^★★▴▴ g | 18% | 5.86^▴▴ % | 9.04% | 10.59^▴▴ % | 9.06^▴▴ % | 87.75% | – | inhibition of tumor growth (in words) ([1]; 0.00831 mmol/kg oral gavage): can significantly inhibit tumor growth; inhibitory effect on tumor growth compared with MLN9708 and compound 6a ([1]; 0.00831 mmol/kg oral gavage): significantly stronger inhibitory effect on tumor growth than MLN9708(p<0.01) and the compound 6a(p<0.01); inhibitory effect on tumor growth compared with compound 6c ([1]; same method and procedure, data not shown): significantly stronger inhibitory effect on tumor growth of the transplantation tumor of human multiple myeloma MM.1S in SCID mouse than that of the compound 6c
3 | CC(C)C[C@H](NC(=O)CNC(=O)c1cc(Br)ccc1F)B1OC(=O)C(c2ccccc2)O1 (stereo partly drawn) [Compound 6f, 2-fluoro-5-bromo-N-[2-({(1R)-3-methyl-1-[4-oxo-5-phenyl-1,3,2-dioxaborolan-2-yl]butyl}amino)-2-oxoethyl]benzamide] | – | – | – | – | – | – | – | can also significantly inhibit tumor growth | the inhibitory effect is weaker than that of compound 6b; also recorded: its inhibitory activity is weaker than that the compound of 6b | 6b>6f>6q>MLN9708 | compound 6b<compound 6f<compound 6q | 0.741 ± 0.917^★★▴▴ g | – | 43.49^▴▴● % | 31.17% | 30.15^▴▴ % | 22.86^▴▴ % | 74.82% | longer onset time to control tumor growth than that of the compound 6b | –
4 | CC(C)C[C@H](NC(=O)CNC(=O)c1cc(Cl)ccc1F)B1OC(=O)C(CC(=O)O)(CC(=O)O)O1 [Compound 6q, (R)-2,2′-(2-(1-(2-(2-fluoro-5-chloro-benzoylamino)acetylamino)-3-methylbutyl)-5-oxo-1,3,2-dioxaborolan-4,4-diyl)diacetic acid] | – | – | – | – | – | – | – | can also significantly inhibit tumor growth | the inhibitory effect is weaker than that of compound 6b | 6b>6f>6q>MLN9708 | compound 6b<compound 6f<compound 6q | 0.945 ± 0.603^★★▴▴● g | – | 47.34^▴▴●● % | 67.42% and 67.42^▴▴● % | 45.35^▴▴ % | 29.00% and 29.20^▴▴ % | 67.85% | the effective time of controlling tumor growth was longer than the 6f group and significantly longer than the 6b group | –
5 | CC(C)C[C@H](NC(=O)CNC(=O)c1cc(Cl)ccc1Cl)B1OC(=O)C(CC(=O)O)(CC(=O)O)O1 [MLN9708, Ixazomib Citrate, reference compound] | 1.782 ± 1.361^★★▴▴ g | 84.97% | 59.75% | 51.05% | 41.67% | 56.1% | 50.69% | no effect on inhibiting tumor growth | – | 6b>6f>6q>MLN9708 | – | – | 90.08% | 112.42% | 137.07% | 97.25% | 84.29% | −0.48% | – | tumor weight [2, 4]: 2.953 ± 0.668 g
